Tests used:
[1] = biological target: T1, Thyroid hormone receptor alpha (Homo sapiens, UniProt P10827); assay: Inhibitory activity against human TRAFalpha
T1 sequence (P10827 whole entry): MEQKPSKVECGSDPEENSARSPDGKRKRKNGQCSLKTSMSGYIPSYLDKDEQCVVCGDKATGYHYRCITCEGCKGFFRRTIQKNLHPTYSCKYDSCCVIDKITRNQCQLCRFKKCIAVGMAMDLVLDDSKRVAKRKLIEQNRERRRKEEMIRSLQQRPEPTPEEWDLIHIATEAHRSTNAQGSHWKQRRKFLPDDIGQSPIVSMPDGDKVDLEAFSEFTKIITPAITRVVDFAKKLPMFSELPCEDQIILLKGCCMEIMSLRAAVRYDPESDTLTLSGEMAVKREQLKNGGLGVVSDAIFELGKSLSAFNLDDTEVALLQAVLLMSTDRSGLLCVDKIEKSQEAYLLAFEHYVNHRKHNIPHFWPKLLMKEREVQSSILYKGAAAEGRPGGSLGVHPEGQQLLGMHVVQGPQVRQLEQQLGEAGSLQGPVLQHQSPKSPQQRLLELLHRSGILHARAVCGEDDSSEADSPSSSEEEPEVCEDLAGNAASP

[2] = biological target: T2, Thyroid hormone receptor beta (Homo sapiens, UniProt P10828); assay: Inhibitory activity against human TRAFbeta
T2 sequence (P10828 whole entry): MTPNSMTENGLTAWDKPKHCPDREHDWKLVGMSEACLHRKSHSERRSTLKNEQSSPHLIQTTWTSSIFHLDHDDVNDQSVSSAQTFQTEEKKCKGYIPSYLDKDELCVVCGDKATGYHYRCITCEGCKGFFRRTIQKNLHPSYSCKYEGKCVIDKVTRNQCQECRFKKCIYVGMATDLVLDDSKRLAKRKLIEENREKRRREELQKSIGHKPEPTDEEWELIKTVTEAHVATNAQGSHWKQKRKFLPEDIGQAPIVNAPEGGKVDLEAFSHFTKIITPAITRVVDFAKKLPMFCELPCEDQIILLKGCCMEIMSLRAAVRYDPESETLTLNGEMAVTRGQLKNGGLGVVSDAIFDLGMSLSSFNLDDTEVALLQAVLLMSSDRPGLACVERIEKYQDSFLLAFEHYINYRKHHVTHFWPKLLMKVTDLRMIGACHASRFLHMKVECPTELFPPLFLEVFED

[3] = biological target: T2, Thyroid hormone receptor beta; assay: Inhibitory activity against human Thyroid hormone receptor beta
[4] = biological target: T1, Thyroid hormone receptor alpha; assay: Inhibitory activity against human Thyroid hormone receptor alpha
Thyroid hormone receptor = biological target: T3, Thyroid hormone receptor (Homo sapiens, UniProt P10827+P10828); assay: Binding affinity for human Thyroid hormone receptor; type: protein-complex assay
T3 sequence (P10827 whole entry): T1 sequence (P10827 whole entry)
T3 sequence (P10828 whole entry): T2 sequence (P10828 whole entry)

SMILES | IC50 [1] | IC50 [2] | IC50 [3] | IC50 [4] | Ki (Thyroid hormone receptor)
Cc1oc2ccccc2c1Cc1cc(I)c(OCC(=O)O)c(I)c1 | 2200 nM | 4100 nM |  |  | 
O=C(O)Cc1cc(Br)c(OCC2CCCCC2)c(Br)c1 | 420 nM | 520 nM | 770 nM | 2700 nM | 
CCOc1c(Br)cc(CC(=O)O)cc1Br |  |  | 32000 nM | 160000 nM | 
CCC(CC)COc1c(Br)cc(CCC(=O)O)cc1Br |  |  | 810 nM | 1600 nM | 
O=C(O)CCc1cc(Br)c(OCC2CCCCC2)c(Br)c1 | 530 nM | 120 nM | 190 nM | 460 nM | 
CCCCOc1c(Br)cc(CC(=O)O)cc1Br |  |  | 1900 nM | 26000 nM | 
CC(C)CCOc1c(Br)cc(CC(=O)O)cc1Br |  |  | 18000 nM | 13000 nM | 
CCCCCCOc1c(Br)cc(CC(=O)O)cc1Br | 700 nM | 800 nM | 1500 nM | 5200 nM | 
CCCCCOc1c(Br)cc(CC(=O)O)cc1Br |  |  | 5700 nM | 20000 nM | 
CC(C)c1cc(Oc2c(Br)cc(C(=O)O)cc2Br)cc(C(C)C)c1O | 1100 nM | 4500 nM |  |  | 1380 nM
CCCCCCOc1c(Br)cc(CCC(=O)O)cc1Br | 600 nM | 1000 nM | 360 nM | 1100 nM | 
CC(C)CCOc1c(Br)cc(CCC(=O)O)cc1Br |  |  | 1800 nM | 4400 nM | 
CCC(CC)COc1c(Br)cc(CC(=O)O)cc1Br | 820 nM | 700 nM | 800 nM | 6900 nM | 
CCCCc1oc2ccccc2c1C(=O)c1cc(I)c(CCN(CC)CC)c(I)c1 | > 10000 nM | > 10000 nM | 600 nM | 650 nM | 
